Source: US8592451B2, “Reversible nondepolarizing neuromuscular blockade agents and methods for their use” (Cornell University, priority 2009, dated 2013)

System: twitch of the extensor digitorum
Test: Neuromuscular blocking potency and duration in anesthetized rhesus monkeys
Type: in vivo, rhesus monkeys (Macaca mulatta)
Conditions: in vivo, comparable level of neuromuscular blockade
Method: Experiments were approved by the Institutional Animal Care and Use Committee of Weill Medical College of Cornell University (New York, N.Y.) and of Albany Medical College (Albany, N.Y.), where the studies were conducted. A colony of 10 adult male monkeys (Macaca mulatta) weighing 8-18 kg was studied at ˜6 week intervals. Animals were housed and cared for in accordance with the Guide for Care and Use of Laboratory Animals (National Research Council, Washington, D.C.). They were fed a standard Old World monkey diet, enriched with fruits and vegetables, and other dietary novelties and were followed throughout the study to verify normal health by physical examination, body weight, and clinical laboratory studies (Complete Blood Count, Blood Urea Nitrogen and creatinine, and liver function tests).
On the day of each study, monkeys received ketamine (7-10 mg/kg i.m.) followed by tracheal intubation under topical anesthesia with 4% lidocaine. Ventilation was controlled at 10 mL/kg and 20 breaths/min with isoflurane (1.0-2.0%) and N2O/O2 (2:1 mixture). Ringers lactate was administered at ˜10 ml kg^−1 h^−1. Arterial pressure was monitored from a femoral, superficial tibial, or radial (22 gauge) cannula. Heart rate was measured by tachograph from the arterial pulse wave. Core temperature was kept at 36.5-38.0° C. by warming blankets. Electrocardiogram and pulse oximetry were monitored continuously.
Needle electrodes (25 gauge) transmitting square-wave pulses of 0.2 msec duration at supramaximal voltage which were generated by a Grass S-88 stimulator (Grass Instruments, Quincy, Mass.) were placed at the peroneal nerve at the knee to elicit twitch responses of the extensor digitorum of the foot at 0.15 Hz. A small slip (10-20%) of the tendon was dissected free under sterile technique and tied to a Grass FT 10 force transducer (Grass Instruments, Quincy, Mass.) at a baseline tension of 50 gm. Train-of four stimulation (TOF, 2 Hz for 2 sec) was interposed at appropriate points, especially 1-2 min prior to NMBA dosing and following recovery of twitch to 95% of baseline, where TOF was subsequently evaluated every 1-2 min.
Recordings of circulatory and neuromuscular data were made on a Grass 7B polygraph (Grass Instruments). A baseline period of 15-20 min was allowed for stabilization of recordings prior to dosing.^2
Dose-response curves for twitch blockade by gantacurium, CW 002, CW 011, cisatracurium, CW002-Cys, NB 938-69, NB 1064-81, NB 802-17 (CW 001), NB 832-65, and NB 1163-79, structures of which are all shown above, were generated as follows. […] Successive doses were separated by at least three estimated half lives beyond complete recovery of the previous dose to TOF of 110-120%, which is normal for these monkeys. Only the first one or two doses yielding 5 to 99% blockade were included from any single experiment for computation of dose-response data.
Comparative studies of spontaneous recovery versus antagonism/reversal were done at least 3 estimated half-lives following dose-response studies.
ED 50 and ED 95 were computed from the regression of log dose vs. the logit of percentage blockade of twitch.
CW002-Cys, the L-cysteine adduct of CW 002, was available in limited quantity and was administered in cumulative fashion to three animals to compare approximate potency and duration of effect versus its parent compound CW 002.

Structure (SMILES): COc1ccc(C[C@@H]2c3cc(OC)c(OC)cc3CC[N@@+]2(C)CCCOC(=O)/C=C\C(=O)OCCC[N@+]2(C)CCc3cc(OC)c(OC)cc3[C@H]2Cc2cc(OC)c(OC)c(OC)c2)cc1OC [CW 011]
- potency relative to CW 002: approximately twice
- potency relative to gantacurium: four times
